Structures are written as SMILES.

In the assay the target is Dihydrofolate reductase (Lactobacillus casei) (UniProt P00381). The settings on record: Lacticaseibacillus casei.
Chain of Dihydrofolate reductase (Lactobacillus casei) (P00381 whole entry): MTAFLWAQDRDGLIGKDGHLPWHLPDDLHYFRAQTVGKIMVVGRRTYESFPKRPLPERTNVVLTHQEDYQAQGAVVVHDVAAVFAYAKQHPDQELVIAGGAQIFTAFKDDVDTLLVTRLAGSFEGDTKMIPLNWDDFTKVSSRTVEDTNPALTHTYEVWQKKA
Description: Inhibitory activity against Lactobacillus casei dihydrofolate reductase (DHFR)
As to `CC1(C)N=C(N)N=C(N)N1c1cccc(COc2cccc(CO)c2)c1`, the log 1/Ki app came to 5.45. As for `CC(=O)c1cccc(N2C(N)=NC(N)=NC2(C)C)c1`, the log 1/Ki app came out at 2.87. Next, `CC1(C)N=C(N)N=C(N)N1c1cccc(COc2cccc(NC(N)=O)c2)c1`: 5.36; `CCCCCCCCCCCCCOc1cccc(N2C(N)=NC(N)=NC2(C)C)c1`: 4.81; `CC(=O)Nc1cccc(OCc2cccc(N3C(N)=NC(N)=NC3(C)C)c2)c1`: 5.45.

`CCCCOc1cccc(N2C(N)=NC(N)=NC2(C)C)c1` returned a log 1/Ki app of 4.2. Next, `CC1(C)N=C(N)N=C(N)N1c1cccc(OCCOc2cccc(C(F)(F)F)c2)c1`: 4.1; `Cc1cccc(N2C(N)=NC(N)=NC2(C)C)c1`: 3.07. Next, `CC1(C)N=C(N)N=C(N)N1c1cccc(OCCCCOc2cccc(C(F)(F)F)c2)c1`: 4.79; `CC1(C)N=C(N)N=C(N)N1c1cccc(F)c1`: 3.29. In the case of `CC1(C)N=C(N)N=C(N)N1c1cccc(COc2cccc(Cl)c2)c1` it was 5.41; in that of `CC1(C)N=C(N)N=C(N)N1c1cccc(OCCOc2ccccc2)c1`, 3.74; in that of `CC(C)(C)c1cccc(OCc2cccc(N3C(N)=NC(N)=NC3(C)C)c2)c1`, 5.44. Take `CC(C)(C)c1cccc(N2C(N)=NC(N)=NC2(C)C)c1`: the log 1/Ki app was found to be 3.2. Next, `CCc1cccc(OCc2cccc(N3C(N)=NC(N)=NC3(C)C)c2)c1`: 5.31; `CC1(C)N=C(N)N=C(N)N1c1cccc(COc2ccccc2)c1`: 5.44. Next, `CC1(C)N=C(N)N=C(N)N1c1cccc(OCc2ccccc2)c1`: 4.2; `CCCCCCCCCOc1cccc(N2C(N)=NC(N)=NC2(C)C)c1`: 4.71; `CC1(C)N=C(N)N=C(N)N1c1cccc([N+](=O)[O-])c1`: 3.56.

In turn, `CC1(C)N=C(N)N=C(N)N1c1cccc(S(=O)(=O)F)c1` registered a log 1/Ki app of 3.21.

`Cc1cccc(OCc2cccc(N3C(N)=NC(N)=NC3(C)C)c2)c1`: the log 1/Ki app was determined as 5.33. As for `CCCCCCCCCCCCOc1cccc(N2C(N)=NC(N)=NC2(C)C)c1`, the log 1/Ki app came out at 4.63. In the case of `CC(C)c1cccc(OCc2cccc(N3C(N)=NC(N)=NC3(C)C)c2)c1` it was 5.41. For `CC1(C)N=C(N)N=C(N)N1c1cccc(OCc2ccc(Cl)c(Cl)c2)c1`, the log 1/Ki app turned out to be 4.41.

For the compound `CC1(C)N=C(N)N=C(N)N1c1cccc(CNc2cc(C(N)=O)cc(C(N)=O)c2)c1`, the log 1/Ki app came out at 4.74.

Compound `CC1(C)N=C(N)N=C(N)N1c1cccc(COc2cccc(C#N)c2)c1` returned a log 1/Ki app of 5.31.

With `CCOC(=O)c1cccc(N2C(N)=NC(N)=NC2(C)C)c1`, the log 1/Ki app was found to be 3.21. In the case of `COc1cccc(OCc2cccc(N3C(N)=NC(N)=NC3(C)C)c2)c1` it was 5.56; in that of `CC1(C)N=C(N)N=C(N)N1c1cccc(I)c1`, 3.73.

On to `CCCCCCCCCCCCCCOc1cccc(N2C(N)=NC(N)=NC2(C)C)c1`, for which the log 1/Ki app stood at 4.5. Next, `CCCCCCc1cccc(N2C(N)=NC(N)=NC2(C)C)c1`: 4.96. In the case of `CC1(C)N=C(N)N=C(N)N1c1cccc(OCCCCOc2ccccc2)c1`, the log 1/Ki app worked out at 4.79. Next, `CC1(C)N=C(N)N=C(N)N1c1cccc(Br)c1`: 3.69. Next, `CCCCCCCCCCCOc1cccc(N2C(N)=NC(N)=NC2(C)C)c1`: 4.54.

For `CC1(C)N=C(N)N=C(N)N1c1cccc(COc2cccc(NC(=N)S)c2)c1`, the log 1/Ki app was found to be 4.36.

The values are drawn from ChEMBL document CHEMBL1121755, “Comparison of the inhibition of methotrexate-sensitive and -resistant Lactobacillus casei cell cultures with purified Lactobacillus casei dihydrofolate reductase by 4,6-diamino-1,2-dihydro-2,2-dimethyl-1-(3-substituted-phenyl)-s-triazines. Use of quantitative structure-activity relationships in …” (1981).
